Laboratory results taken from patent publication US20040171688A1, “Carboxylic acids and derivatives thereof and pharmaceutical compositions containing them” (priority 1997, published 2004).
pEC50: −log10 of the molar value.

Tests used:
HNF-4α [1] = molecular target: T1, HNF-4α (Rattus norvegicus, UniProt P22449); assay: Ligand binding assay with [3H]palmitoyl(16:0)-CoA on recombinant GST-HNF-4α(LBD) or His-HNF-4α
T1 construct: GST-HNF-4α(LBD) fusion protein consisting of amino acids 96-455 of wild type HNF-4α fused to GST; fused on or other part: Glutathione-S-transferase (GST) at the N-terminus of the LBD construct; 6-histidine tag on the full-length construct
T1 sequence (P22449 105-464 isoform P22449-2 limits assumed): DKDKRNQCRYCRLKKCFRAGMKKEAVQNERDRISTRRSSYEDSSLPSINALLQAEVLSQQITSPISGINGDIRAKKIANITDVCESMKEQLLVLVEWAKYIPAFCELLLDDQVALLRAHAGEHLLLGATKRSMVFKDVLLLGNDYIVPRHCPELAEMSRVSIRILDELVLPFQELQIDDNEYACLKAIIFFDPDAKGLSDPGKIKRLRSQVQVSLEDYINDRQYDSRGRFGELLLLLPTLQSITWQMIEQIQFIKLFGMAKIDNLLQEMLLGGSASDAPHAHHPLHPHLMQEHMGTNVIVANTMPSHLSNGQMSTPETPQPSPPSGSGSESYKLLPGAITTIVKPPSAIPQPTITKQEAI
Experimental: a. […] The respective recombinant proteins are incubated to equilibrium with [^3H]palmitoyl(16:0)-CoA (0.05 μCi) and with increasing nonlabeled palmitoyl(16:0)-CoA as indicated.
b. […] The respective recombinant proteins are incubated with 8 nM of [^3H]palmitoyl(16:0)-CoA (60 Ci/mmol) and with increasing nonlabeled myristoyl(14:0)-CoA as indicated. Percent bound refers to radiolabeled [^3H]palmitoyl(16:0)-CoA in the bound fraction. […] Percent bound refers to radiolabeled [^3H]palmitoyl(16:0)-CoA in the bound fraction.
Rat HNF-4α1 cDNA(pLEN4S)^1 was subcloned into the glutathione-S-transferase (GST) encoding pGEX-2T plasmid (Pharmacia) and the resultant plasmid was cleaved with smaI and AccI and religated to yield the GST-HNF-4α(LBD) fusion plasmid. […] The full length HNF-4α1 cDNA cloned into 6His-pET11d vector was expressed in E.coli BL21 (DE3)plysS.
Recombinant GST-HNF-4α(LBD) (100 pmol) or His-HNF-4α (100 pmol) were incubated for 60 min at 22° C. with [^3H]palmitoyl(16:0)-CoA (American RadiolabeledChemicals) in 100 μl of 10 mM phosphate buffer (pH 7.4). Competitor ligands or solvent carrier were added as indicated. Free and HNF-4α bound ^3[H]palmitoyl(16:0)-CoA were separated by […] and bound ligand was quantified by liquid scintillation counting. Nonspecific binding of [^3H]palmitoyl(16:0)-CoA was determined by its binding to the GST moiety or to carbonic anhydrase as nonrelevant protein.
Binding was exemplified with either the ligand binding domain of HNF-4α fused to glutathione-s-transferase (GST-HNF-4α(LBD)) or the full length HNF-4α protein tagged by 6 histidines (His-HNF-4α).

HNF-4α [2] = molecular target: T2, HNF-4α (Rattus norvegicus, UniProt P22449); assay: Transfection assay: COS-7 cells cotransfected with (C3P)3-TK-CAT reporter and pSG5-HNF-4α; format: cell-based; design: expressed in transfected cells; host or cells: COS-7; conditions: for pEC50: proligands added to culture medium of COS-7 cells (FIG. 4b), read-out: EC50 of HNF-4α suppression (CAT activity); for inhibition of HNF-4α transcriptional activity, effectiveness in words: transfection assays, added to culture medium; for effect on HNF-4α dependent transcription (CAT activity): free fatty acids added to culture medium of COS-7 cells (FIG. 4a)
T2 sequence (P22449 1-464 isoform P22449-2): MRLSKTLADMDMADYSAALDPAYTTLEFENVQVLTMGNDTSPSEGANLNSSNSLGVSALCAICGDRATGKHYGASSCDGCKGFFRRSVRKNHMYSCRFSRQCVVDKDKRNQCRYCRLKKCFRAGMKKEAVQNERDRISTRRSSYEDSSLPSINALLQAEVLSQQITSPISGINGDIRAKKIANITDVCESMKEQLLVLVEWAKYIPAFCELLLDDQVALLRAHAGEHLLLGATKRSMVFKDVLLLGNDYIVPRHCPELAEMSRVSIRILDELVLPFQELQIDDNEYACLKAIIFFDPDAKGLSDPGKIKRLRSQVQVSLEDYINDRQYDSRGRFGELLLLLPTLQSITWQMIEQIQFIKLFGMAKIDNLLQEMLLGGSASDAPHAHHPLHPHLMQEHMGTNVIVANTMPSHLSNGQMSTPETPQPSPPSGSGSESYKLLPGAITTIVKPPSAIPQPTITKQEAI
Experimental: a. […] Fold induction of CAT activity by transfected HNF-4I is determined by evaluating CAT activity in the presence of pSG5-HNF-4I as compared with pSG5 plasmid and as function of respective fatty acids added to the culture medium as indicated. The figure summarizes 3-4 independent experiments for each fatty acid. Mean ± S.E.
b. […] Fold induction refers to CAT activity in cells incubated with 3,3,12,12-tetramethyl-tetradecanedioic acid (∘), 3,3,14,14-tetramethyl-hexadecanedioic acid (□) and 3,3,16,16-tetramethyl-octadecanedioic acid (Δ) proligands normalized to the activity in cells incubated in the absence of added proligands.
COS-7 cells cotransfected for 6 h with the (C3P)3-TK-CAT reporter plasmid (5 μg) and with either the pSG5-HNF-4α expression plasmid ([…]) or the pSG5 plasmid (0.025 μg) added by calcium phosphate precipitation were cultured in serum free medium with fatty acids (complexed with albumin in a molar ratio of 6:1) added as indicated. β-Galactosidase expression vector pRSGAL (1 μg) added to each precipitate served as an internal control for transfection. The (C3P)3-TK-CAT construct was prepared by inserting a synthetic oligonucleotide encompassing the (−87/−66) Apo CIII promoter sequence (5′-[…]-3′) flanked by HindIII restriction site into pBLCAT2^47 upstream of the −105 bp thymidine kinase promoter. The construct containing three copies of the synthetic oligonucleotide in the direct orientation was selected and confirmed by sequencing.
The intracellular effect of HNF-4α ligands on HNF-4α mediated transcription was evaluated in COS-7 cells cotransfected with an expression vector for HNF-4α and with a CAT reporter plasmid driven by a thymidine kinase promoter and enhanced by one to three C3P copies of the apo CIII gene promoter. Transfected cells were incubated in the presence of free fatty acids and xenobiotic amphipathic carboxylates representing agonistic or antagonistic HNF-4α proligands.

[3] = competition with 8 nM [3H]palmitoyl(16:0)-CoA, GST-HNF-4α(LBD) or His-HNF-4α, read-out: EC50 (50% specific competition)

Row | SMILES | pEC50 (HNF-4α [2]) | inhibition of HNF-4α transcriptional activity, effectiveness in words (HNF-4α [2]) | other results
1 | CCCCCCCCCCCC(=O)SCCNC(=O)CCNC(=O)[C@H](O)C(C)(C)COP(=O)(O)OP(=O)(O)OC[C@H]1O[C@@H](n2cnc3c(N)ncnc32)[C@H](O)[C@@H]1OP(=O)(O)O [Dodecanoyl(12:0)-CoA, reference compound] | – | – | pEC50 (HNF-4α [1]; [3]): 5.64
2 | CC/C=C\C/C=C\C/C=C\C/C=C\C/C=C\CCCC(=O)O [eicosapentaenoic(20:5) acids, eicosapentaenoic(20:5) acid] | – | – | effect on HNF-4α dependent transcription (CAT activity) (HNF-4α [2]): suppressive
3 | O=C(O)CCCCCCCCCCCCCCCO [16-hydroxy-hexadecanoic acid] | – | effective | –
4 | CCCCCCCCCCCCCCCC(=O)O [palmitic(16:0) acid] | – | – | effect on HNF-4α dependent transcription (CAT activity) (HNF-4α [2]): dose dependent activation
5 | COc1ccc2c(c1)c(CC(=O)O)c(C)n2C(=O)c1ccc(Cl)cc1 [Indomethacine, reference compound] | 3.89 | – | –
6 | CC(C)(CCCCCCCCCCCCCCCO)CC(=O)O [18-hydroxy-3,3-dimethyl-octa-decanoic acid] | – | effective | –
7 | CC(C)Cc1ccc(C(C)C(=O)O)cc1 (centres unmarked) [Ibuprofen, reference compound] | – | – | pEC50 (HNF-4α [1]; [3]): 4.40
8 | CCCCCCCC/C=C\CCCCCCCC(=O)SCCNC(=O)CCNC(=O)[C@H](O)C(C)(C)COP(=O)(O)OP(=O)(O)OC[C@H]1O[C@@H](n2cnc3c(N)ncnc32)[C@H](O)[C@@H]1OP(=O)(O)O [Oleoyl(18:1)-CoA] | – | – | pEC50 (HNF-4α [1]; [3]): 5.85
9 | CC(C)(Oc1ccc(CCNC(=O)c2ccc(Cl)cc2)cc1)C(=O)O [Bezafibrate, reference compound] | 3.59 | – | pEC50 (HNF-4α [1]): 4.05
10 | CC(C)(COP(=O)(O)OP(=O)(O)OC[C@H]1O[C@@H](n2cnc3c(N)ncnc32)[C@H](O)[C@@H]1OP(=O)(O)O)[C@@H](O)C(=O)NCCC(=O)NCCS [free CoA] | – | – | binding to HNF-4α (in words) (HNF-4α [1]; GST-HNF-4α(LBD) or His-HNF-4α): inactive
11 | CCCCC/C=C\C/C=C\CCCCCCCC(=O)SCCNC(=O)CCNC(=O)[C@H](O)C(C)(C)COP(=O)(O)OP(=O)(O)OC[C@H]1O[C@@H](n2cnc3c(N)ncnc32)[C@H](O)[C@@H]1OP(=O)(O)O [Linoleoyl(18:2)-CoA] | – | – | pEC50 (HNF-4α [1]; [3]): 5.72
12 | O=C(O)CCCCCCCCCCCCCCCCCO [18-hydroxy-octadecanoic acid] | – | effective | –
13 | CC(C)(Oc1ccc(C2CCCc3ccccc32)cc1)C(=O)O (centres unmarked) [Nafenopin, reference compound] | 3.80 | – | pEC50 (HNF-4α [1]; [3]): 4.05
14 | CC/C=C\C/C=C\C/C=C\CCCCCCCC(=O)O [α-linolenic(18:3), α-linolenic(18:3) acid] | – | – | effect on HNF-4α dependent transcription (CAT activity) (HNF-4α [2]): suppressive

Now from value to molecule, other results behind:

Row | pEC50 (HNF-4α [2]) | inhibition of HNF-4α transcriptional activity, effectiveness in words (HNF-4α [2]) | SMILES | other results
15 | 3.81 | Highly effective | CC(C)(CCCCCCCCCCC(C)(C)CC(=O)O)CC(=O)O [3,3,14,14-tetramethyl-hexadecanedioic acid] | pEC50 (HNF-4α [1]; [3]): 5.10
16 | 3.82 | Highly effective | CC(C)(CCCCCCCCCCCCC(C)(C)CC(=O)O)CC(=O)O [3,3,16,16-tetramethyl-octadecanedioic acid] | pEC50 (HNF-4α [1]; [3]): 5.10
17 | 3.82 | Highly effective | CC(C)(CCCCCCCCCCCCC(C)(C)C(=O)O)C(=O)O [2,2,15,15-tetramethyl-hexadecane dioic acid] | –
18 | 3.82 | Highly effective | CC(C)(CCCCCCCCCCC(C)(C)CCC(=O)O)CCC(=O)O [4,4,15,15-tetramethyl-octadecane dioic acid] | –
19 | – | effective | CC(C)(CCCCCCCCCCCCCCO)CCC(=O)O [18-hydroxy-4,4-dimethyl-octadecanoic acid] | –
20 | 3.82 | Highly effective | CC(C)(CCCCCCCCCCCCCCC(C)(C)C(=O)O)C(=O)O [2,2,17,17-tetramethyl-octadecane dioic acid] | –
21 | 3.82 | Highly effective | CC(C)(CCCCCCCCC(C)(C)CCC(=O)O)CCC(=O)O [4,4,13,13-tetramethyl-hexadecane dioic acid] | –
22 | 3.64 | – | CC(C)(CCCCCCCCCCC(C)(C)C(=O)O)C(=O)O [2,2,13,13-tetramethyl-tetradecane dioic acid] | –
23 | – | effective | CC(C)(CCCCCCCCCCCCCO)CC(=O)O [16-hydroxy-3,3-dimethyl-hexadecanoic acid] | –
24 | < 3.52 | – | CC(C)(CCCCCCCCC(C)(C)CC(=O)O)CC(=O)O [3,3,12,12-tetramethyl-tetradecanedioic acid] | pEC50 (HNF-4α [1]; [3]): 4.40
25 | – | effective | CC(C)(CCCCCCCCCCCCO)CCC(=O)O [16-hydroxy-4,4-dimethyl-hexadecanoic acid] | –
26 | – | effective | CC(C)(CCCCCCCCCCCCCCO)C(=O)O [16-hydroxy-2,2-dimethyl-hexadecanoic acid] | –
27 | – | effective | CC(C)(CCCCCCCCCCCCCCCCO)C(=O)O [18-hydroxy-2,2-dimethyl-octadecanoic acid] | –
